# Results taken from patent US9365853B2, “Matriptase inhibitors and uses thereof against orthomyxoviridae infections” (priority 2011, dated 2016).
# Read-outs that look alike come from different tables or passages of the source. Where a SMILES comes first, the peptide text is derived from it. The star is where a group is joined. X1 = N=C(N)NCCC[C@@H](N*)C(=O)c1nc2ccccc2s1; CH2Cl = ClC*
# How the values were obtained:
# matriptase [1] = biological target: T1, matriptase (Homo sapiens (Human), UniProt Q9Y5Y6); experiment: Dissociation of enzyme:inhibitor complex by dilution recovery experiments; type: biochemical; settings: matriptase 0.5 μM pre-incubated 20 minutes, diluted 1:2000
# Experimental: Dissociation of the enzyme-inhibitor (EI) complex was investigated using dilution recovery experiments. […] Complexes were rapidly (1:2000) diluted in a reaction buffer containing 400 μM of Boc-Gln-Ala-Arg-AMC (˜7 times Km). Activity was continuously recorded for 75 minutes and fluorescence plotted as a function of time.
# matriptase [2] = biological target: T1, matriptase; experiment: Ki determination for matriptase (Morrison tight-binding or mixed model, fluorogenic Boc-Gln-Ala-Arg-AMC); type: biochemical; settings: for reduced potency (lower inhibition) compared to compound 1: matriptase Ki relative to compound 1
# [3] = test system: influenza A/Puerto Rico/8/34; type: cell-based, influenza A/Puerto Rico/8/34 (H1N1)
# [4] = biological target: Recombinant purified human matriptase (amino acids 596-855) (Homo sapiens (Human), UniProt Q9Y5Y6); experiment: biochemical; type: biochemical
# [5] = test system: influenza A/Puerto Rico/8/34 virus; type: cell-based, influenza A/Puerto Rico/8/34 virus (PR8)
# [6] = test system: influenza A/Puerto Rico/8/34 virus; type: cell-based, influenza A/Puerto Rico/8/34 virus (PR8); remark: listed apart in the source
# furin = furin (Homo sapiens (Human), UniProt P09958); experiment: Ki determination, selectivity profile: furin (Boc-Arg-Arg-Val-Arg-AMC); type: biochemical; settings: furin (protease #7); NI = no inhibition, 10 μM
# matriptase [7] = biological target: T1, matriptase; experiment: Matriptase inhibition in cellulo (HEK293 transfected with pcDNA3.1-matriptase, activity in media); type: cell-based; settings: HEK293, 24 h incubation, read-out: inhibition of matriptase activity in cultured cells
# Experimental: Human embryonic kidney cells (HEK293) were transfected with 6 μg of pcDNA3.1™ (Mock) or pcDNA3.1™-matriptase (Matriptase) using Lipofectamine 2000™ reagent (Invitrogen) in 10-cm plates. […] After 24 h incubation, media was incubated with Boc-Gln-Ala-Arg-AMC substrate (50 μM) and fluorescence measured for 20 minutes at 37° C. Enzyme activity was determined in terms of released fluorescence units per minutes per μl of media for each condition.
# matriptase [8] = biological target: T1, matriptase; experiment: siRNA knock-down of matriptase protein expression in Calu-3 cells (Western blot, densitometry); type: cell-based; settings: Calu-3, 50 nmol siRNA, 1.5 μl Lipofectamine RNAiMAX, 48 h after transfection
# Experimental: Using RNA interference technology, siRNAs specific to human matriptase were targeted in these cells. Calu-3 cells were transfected with two different siRNAs (50 nmol, S1: s13520 (Ambion) Silencer® Select siRNAs gene symbol ST14; S2: EHU012511 (Sigma-Aldrich) MISSION® esiRNA targeting human ST14 (esiRNA1)) targeted toward matriptase mRNA (target sequence of EHU012511: […] […] […] […] (SEQ ID NO:5)) using various concentrations of Lipofectamine RNAiMAX™ (0.5 to 1.5 μl). Scrambled siRNAs were used as controls. 48 h after transfection, cellular protein extracts were prepared. Extracts were subjected to polyacrylamide gel electrophoresis (SDS-PAGE) and transferred to nitrocellulose membranes. Membranes were probed for matriptase protein expression using a rabbit anti-human matriptase-specific antibody. Membranes were blocked using non-fat dry milk in Tris-Buffered Saline (TBS) with Tween™ 20. Membranes were then labeled with a rabbit anti-human matriptase-specific antibody (Bethyl Laboratories Inc.).
# Chain of Recombinant purified human matriptase (amino acids 596-855) (Q9Y5Y6 596-855 limits assumed): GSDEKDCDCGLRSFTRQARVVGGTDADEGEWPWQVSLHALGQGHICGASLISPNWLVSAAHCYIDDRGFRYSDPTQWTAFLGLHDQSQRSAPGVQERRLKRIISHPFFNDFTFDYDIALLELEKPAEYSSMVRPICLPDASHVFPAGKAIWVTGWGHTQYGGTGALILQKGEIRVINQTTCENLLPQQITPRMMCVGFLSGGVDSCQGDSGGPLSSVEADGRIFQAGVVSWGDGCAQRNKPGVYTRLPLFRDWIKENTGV
# Chain of furin (P09958 108-794 limits assumed): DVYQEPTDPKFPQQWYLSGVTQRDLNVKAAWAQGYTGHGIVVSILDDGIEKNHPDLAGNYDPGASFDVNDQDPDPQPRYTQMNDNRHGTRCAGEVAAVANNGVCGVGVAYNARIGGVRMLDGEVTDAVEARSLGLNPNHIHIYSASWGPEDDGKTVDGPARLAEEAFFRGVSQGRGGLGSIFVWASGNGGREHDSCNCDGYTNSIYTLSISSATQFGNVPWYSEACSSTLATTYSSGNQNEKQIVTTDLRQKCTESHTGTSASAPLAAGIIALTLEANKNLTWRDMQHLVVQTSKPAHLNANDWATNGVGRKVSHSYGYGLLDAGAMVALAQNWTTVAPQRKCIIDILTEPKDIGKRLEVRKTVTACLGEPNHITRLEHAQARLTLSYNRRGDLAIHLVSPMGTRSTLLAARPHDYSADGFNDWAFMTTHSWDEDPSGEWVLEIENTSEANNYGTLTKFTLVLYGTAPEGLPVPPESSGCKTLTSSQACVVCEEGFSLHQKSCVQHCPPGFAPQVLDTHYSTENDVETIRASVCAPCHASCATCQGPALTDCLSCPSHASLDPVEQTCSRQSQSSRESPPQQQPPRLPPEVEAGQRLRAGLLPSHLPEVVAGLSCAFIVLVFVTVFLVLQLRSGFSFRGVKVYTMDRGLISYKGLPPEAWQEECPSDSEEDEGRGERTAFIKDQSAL
smiles,measurement,setting,value
"N=C(N)NCCC[C@H](NC(=O)CNC(=O)[C@@H](N)CCC(=O)O)C(=O)CCl [EGR-CMK, Glu-Gly-Arg chloromethyl ketone] (H-Glu-Gly-Arg-CH2Cl)",dissociation of enzyme:inhibitor complex (reversibility),matriptase [1],irreversible inhibition
"C[C@H](NC(=O)[C@H](CCC(N)=O)NC(=O)[C@@H](N)CCCNC(=N)N)C(=O)N[C@@H](CCCNC(=N)N)C(O)c1nc2ccccc2s1 (mixture of isomers) [Compound 2, 2-(2-amino-5-carbamimidamidopentanamido)-N-(1-{[1-(1,3-benzothiazol-2-yl)-5-carbamimidamido-1-hydroxypentan-2-yl]carbamoyl}ethyl)pentanediamide]",Ki,matriptase [2],6.1 µM
"C[C@H](NC(=O)[C@H](CCC(N)=O)NC(=O)[C@@H](N)CCCNC(=N)N)C(=O)N[C@@H](CCCNC(=N)N)C(=O)c1nc2ccccc2s1 [Compound 1, RQAR-ketobenzothiazole]",block of influenza replication,[3],more than 50%
same,inhibition of matriptase activity,[4],almost completely
same,effect on influenza replication with trypsin as the activating protease,[5],no effect
same,influenza replication supported by matriptase,[6]; 1 μM,completely abrogate
same,influenza replication supported by matriptase,[6]; 10 μM,completely abrogate
same,Ki (nM),furin,no inhibition
same,inhibition at 1 µM,matriptase [7]; 1 μM,~50%
same,inhibition at 10 µM,matriptase [7]; 10 μM,~100%
"CC(NC(=O)C(CCC(N)=O)NC(=O)C(N)CCCNC(=N)N)C(=O)NC(CCCNC(=N)N)C(O)c1nc2ccccc2s1 (centres unmarked) [Compound 2, 2-(2-amino-5-carbamimidamidopentanamido)-N-(1-{[1-(1,3-benzothiazol-2-yl)-5-carbamimidamido-1-hydroxypentan-2-yl]carbamoyl}ethyl)pentanediamide]",matriptase protein expression,matriptase [8],significantly blocked
"CC(NC(=O)C(CCC(N)=O)NC(=O)C(N)CCCNC(=N)N)C(=O)NC(CCCCN)C(=O)c1nc2ccccc2s1 (centres unmarked) [Compound 3, N-(1-{[6-amino-1-(1,3-benzothiazol-2-yl)-1-oxohexan-2-yl]carbamoyl}ethyl)-2-(2-amino-5-carbamimidamidopentanamido)pentanediamide]",inhibition at 1 µM,[4]; read-out: inhibition of matriptase activity,~25%
same,decrease of the Ki relative to compound 1,matriptase [2],about 3 orders of magnitude
"CC(=O)NC(CCCNC(=N)N)C(=O)c1nc2ccccc2s1 (centres unmarked) [Compound 6, N-[1-(1,3-benzothiazol-2-yl)-5-carbamimidamido-1-oxopentan-2-yl]acetamide]",Ki,matriptase [2],0.457 µM
same,mode of inhibition,matriptase [2]; matriptase,mixed mode of inhibition
same,reduced potency (lower inhibition) compared to compound 1,matriptase [2],"over 30,000 fold"
C[C@H](NC(=O)[C@H](CCC(N)=O)NC(=O)[C@@H](N)CCCNC(=N)N)C(=O)N[C@@H](CC(=O)O)C(=O)N[C@H](CCCNC(=N)N)C(=O)c1nc2ccccc2s1 [Compound 7] (H-RQAD-X1),reduced potency (lower inhibition) compared to compound 1,matriptase [2],400 fold
